Results taken from ChEMBL document CHEMBL6153132 (J Med Chem, 2025).
Activity calls are given as the source filed them. The rule behind the calls is not given here.

Columns and labels:
[1] = Metabolic stability in human liver microsome assessed as half life; format: ADME, microsomes; conditions: microsomes
[2] = Metabolic stability in human liver microsome assessed as intrinsic clearance; format: ADME; conditions: microsomes
[3] = Lipophilicity, logD of compound at pH 7.4; format: physicochemical; conditions: buffer
[4] = target: T1, Interstitial collagenase (Homo sapiens) (UniProt P03956); test: Inhibition of MMP1 (unknown origin) at 10 uM relative to control
T1 sequence (whole entry): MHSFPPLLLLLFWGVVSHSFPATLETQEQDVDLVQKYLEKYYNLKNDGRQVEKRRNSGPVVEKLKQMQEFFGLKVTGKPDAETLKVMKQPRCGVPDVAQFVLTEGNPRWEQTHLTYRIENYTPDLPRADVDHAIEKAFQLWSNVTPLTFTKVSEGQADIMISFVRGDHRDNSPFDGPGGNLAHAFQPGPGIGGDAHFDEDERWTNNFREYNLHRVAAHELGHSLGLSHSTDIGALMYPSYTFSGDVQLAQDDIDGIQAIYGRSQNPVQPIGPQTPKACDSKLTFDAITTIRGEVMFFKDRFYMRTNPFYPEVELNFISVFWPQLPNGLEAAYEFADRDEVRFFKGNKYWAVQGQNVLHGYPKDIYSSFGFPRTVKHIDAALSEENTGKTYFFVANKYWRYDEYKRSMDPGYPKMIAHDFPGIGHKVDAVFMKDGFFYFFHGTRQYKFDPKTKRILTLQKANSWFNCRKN

[5] = target: 72 kDa type IV collagenase (Homo sapiens) (UniProt P08253); test: Inhibition of MMP2 (unknown origin) at 10 uM relative to control
[6] = target: Stromelysin-1 (Homo sapiens) (UniProt P08254); test: Inhibition of MMP3 (unknown origin) at 10 uM relative to control
[7] = target: Matrix metalloproteinase-9 (Homo sapiens) (UniProt P14780); test: Inhibition of MMP9 (unknown origin) at 10 uM relative to control
[8] = target: Collagenase 3 (Homo sapiens) (UniProt P45452); test: Inhibition of MMP13 (unknown origin) at 10 uM relative to control
[9] = target: Glutaminyl-peptide cyclotransferase (Homo sapiens) (UniProt Q16769); test: Inhibition of glutaminyl cyclase (unknown origin) at 10 uM relative to control
A2780 [10] = test: Induction of cell cycle arrest in human A2780 cells assessed as increase in accumulation of cells at subG1 phase; format: functional, cell-based
A2780 [11] = test: Induction of cell cycle arrest in human A2780 cells assessed as increase in accumulation of cells at subG1 phase 0.5 to 1 uM; format: functional, cell-based; conditions: dose 0.5-1 µM
CAL-27 [12] = test: Induction of DNA damage in human CAL-27 cells assessed as gamma-H2AX accumulation at 0.5 uM by Western blot analysis; format: functional, cell-based
Cal27CisR [13] = test: Induction of DNA damage in human Cal27CisR cells assessed as gamma-H2AX accumulation at 0.5 uM by Western blot analysis; format: functional, cell-based
CAL-27 [14] = test: Induction of DNA damage in human CAL-27 cells assessed as gamma-H2AX accumulation at 0.5 uM in presence of cisplatin by Western blot analysis; format: functional, cell-based
Cal27CisR [15] = test: Induction of DNA damage in human Cal27CisR cells assessed as gamma-H2AX accumulation at 0.5 uM in presence of cisplatin by Western blot analysis; format: functional, cell-based
CAL-27 [16] = test: Anti-apoptotic activity in human CAL-27 cells assessed as increase in BCL-2 expression at 0.5 uM incubated for 48 hrs by Western blot analysis; format: functional, cell-based
CAL-27 [17] = test: Anti-apoptotic activity in human CAL-27 cells assessed as increase in BCL-2 expression at 0.5 uM incubated for 48 hrs in presence of cisplatin by Western blot analysis; format: functional, cell-based
CAL-27 [18] = test: Anti-apoptotic activity in human CAL-27 cells assessed as increase in survivin expression at 0.5 uM incubated for 48 hrs by Western blot analysis; format: functional, cell-based
CAL-27 [19] = test: Anti-apoptotic activity in human CAL-27 cells assessed as increase in survivin expression at 0.5 uM incubated for 48 hrs in presence of cisplatin by Western blot analysis; format: functional, cell-based
CAL-27 [20] = test: Induction of apoptosis in human CAL-27 cells assessed as increase in BIM expression at 0.5 uM incubated for 48 hrs by Western blot analysis; format: functional, cell-based
CAL-27 [21] = test: Induction of apoptosis in human CAL-27 cells assessed as increase in BIM expression at 0.5 uM incubated for 48 hrs in presence of cisplatin by Western blot analysis; format: functional, cell-based
CAL-27 [22] = test: cells; conditions: Homo sapiens, CAL-27, 72 h
cells [23] = conditions: Homo sapiens, Cal27CisR, 72 h
cells [24] = conditions: Homo sapiens, Cal27CisR
A2780 [25] = test: cells; conditions: Homo sapiens
A2780cisR = test: cells; conditions: Homo sapiens
HL-60 = test: cells; conditions: Homo sapiens, HL-60, 72 h
Description: Cytotoxicity against human HL-60 cells assessed as cell viability incubated for 72 hrs by MTT assay

Chain of Matrix metalloproteinase-9 (Homo sapiens) (P14780 whole entry): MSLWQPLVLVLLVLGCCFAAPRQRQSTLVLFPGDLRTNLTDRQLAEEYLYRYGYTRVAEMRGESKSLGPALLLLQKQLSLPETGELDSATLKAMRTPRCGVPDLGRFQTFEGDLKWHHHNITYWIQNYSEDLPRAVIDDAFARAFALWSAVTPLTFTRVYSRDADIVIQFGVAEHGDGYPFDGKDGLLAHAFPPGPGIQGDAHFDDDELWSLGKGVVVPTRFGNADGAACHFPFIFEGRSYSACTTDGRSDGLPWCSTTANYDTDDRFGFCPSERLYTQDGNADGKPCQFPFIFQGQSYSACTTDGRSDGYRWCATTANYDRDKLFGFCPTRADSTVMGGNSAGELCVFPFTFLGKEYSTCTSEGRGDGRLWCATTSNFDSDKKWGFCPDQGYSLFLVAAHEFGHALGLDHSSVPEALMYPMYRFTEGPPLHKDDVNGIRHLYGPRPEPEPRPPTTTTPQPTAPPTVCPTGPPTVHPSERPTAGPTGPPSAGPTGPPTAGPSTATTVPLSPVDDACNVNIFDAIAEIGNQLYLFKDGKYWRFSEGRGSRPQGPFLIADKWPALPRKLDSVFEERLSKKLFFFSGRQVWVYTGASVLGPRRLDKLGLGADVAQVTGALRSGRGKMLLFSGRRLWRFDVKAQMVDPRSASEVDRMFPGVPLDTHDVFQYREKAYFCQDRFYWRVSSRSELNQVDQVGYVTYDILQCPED
Chain of Stromelysin-1 (Homo sapiens) (P08254 100-477 limits assumed): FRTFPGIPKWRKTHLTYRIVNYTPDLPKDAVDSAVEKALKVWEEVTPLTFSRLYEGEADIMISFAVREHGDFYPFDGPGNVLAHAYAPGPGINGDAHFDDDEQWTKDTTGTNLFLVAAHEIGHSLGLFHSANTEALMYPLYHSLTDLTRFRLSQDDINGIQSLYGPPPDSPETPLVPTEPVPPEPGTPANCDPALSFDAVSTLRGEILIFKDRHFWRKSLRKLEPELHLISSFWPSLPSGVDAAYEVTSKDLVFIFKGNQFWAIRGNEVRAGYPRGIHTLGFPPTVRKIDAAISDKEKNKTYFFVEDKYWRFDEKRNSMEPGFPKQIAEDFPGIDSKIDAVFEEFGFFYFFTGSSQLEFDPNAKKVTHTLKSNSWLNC
Chain of Glutaminyl-peptide cyclotransferase (Homo sapiens) (Q16769 29-361 limits assumed): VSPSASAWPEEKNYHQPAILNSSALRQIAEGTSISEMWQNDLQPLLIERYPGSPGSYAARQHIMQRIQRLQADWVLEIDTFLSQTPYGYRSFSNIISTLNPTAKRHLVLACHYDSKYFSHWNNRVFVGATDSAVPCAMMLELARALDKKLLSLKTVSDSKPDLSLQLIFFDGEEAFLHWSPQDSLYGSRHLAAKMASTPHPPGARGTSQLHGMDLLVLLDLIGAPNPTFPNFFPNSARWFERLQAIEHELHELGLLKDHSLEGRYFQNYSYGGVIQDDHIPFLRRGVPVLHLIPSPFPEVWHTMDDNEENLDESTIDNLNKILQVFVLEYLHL
Chain of 72 kDa type IV collagenase (Homo sapiens) (P08253 110-660 limits assumed): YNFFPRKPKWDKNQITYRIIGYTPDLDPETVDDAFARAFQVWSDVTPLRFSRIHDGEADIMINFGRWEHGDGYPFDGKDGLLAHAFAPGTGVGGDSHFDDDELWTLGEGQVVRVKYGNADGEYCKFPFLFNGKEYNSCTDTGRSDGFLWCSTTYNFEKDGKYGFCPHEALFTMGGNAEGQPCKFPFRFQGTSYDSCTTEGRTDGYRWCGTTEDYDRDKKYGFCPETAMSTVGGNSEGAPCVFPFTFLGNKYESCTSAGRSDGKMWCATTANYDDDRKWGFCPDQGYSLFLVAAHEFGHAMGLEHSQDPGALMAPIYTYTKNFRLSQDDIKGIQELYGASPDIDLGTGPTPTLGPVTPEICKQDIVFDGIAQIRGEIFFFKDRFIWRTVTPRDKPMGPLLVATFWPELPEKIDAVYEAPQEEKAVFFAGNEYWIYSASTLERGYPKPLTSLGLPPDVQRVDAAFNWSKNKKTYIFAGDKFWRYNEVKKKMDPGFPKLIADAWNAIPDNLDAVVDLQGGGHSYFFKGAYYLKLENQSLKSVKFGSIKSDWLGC

Question: Which t1/2 [1] does the source give for `CCNNC(=O)c1ccc(CN(CC(=O)NCc2ccccc2)C(=O)c2ccc(N(C)C)cc2)cc1` here?
Answer: Its t1/2 is 33.93 min.

Question: What about the CLH [2] of the same compound?
Answer: Its CLH is 40.9 µL/min/mg.

Question: And the logD [3]?
Answer: The logD was 2.69.

Question: And the inhibition [4]?
Answer: Its inhibition is “inactive”.

Question: And the inhibition [5]?
Answer: Its inhibition is “inactive”.

Question: And the inhibition [6]?
Answer: The inhibition was “inactive”.

Question: What about the inhibition [7] of the same compound?
Answer: Its inhibition is “inactive”.

Question: And the inhibition [8]?
Answer: The inhibition was “inactive”.

Question: What about the inhibition [9] of the same compound?
Answer: Its inhibition is “inactive”.

Question: What about the Activity (A2780 [10]) of the same compound?
Answer: The Activity was “Active”.

Question: And the Activity (A2780 [11])?
Answer: The Activity was “Active”.

Question: And the Activity (CAL-27 [12])?
Answer: Its Activity is “Active”.

Question: And the Activity (Cal27CisR [13])?
Answer: Its Activity is “Active”.

Question: And the Activity (CAL-27 [14])?
Answer: The Activity was “Active”.

Question: What about the Activity (Cal27CisR [15]) of the same compound?
Answer: The Activity was “Active”.

Question: And the Activity (CAL-27 [16])?
Answer: Its Activity is “Active”.

Question: And the Activity (CAL-27 [17])?
Answer: The Activity was “Active”.

Question: And the Activity (CAL-27 [18])?
Answer: Its Activity is “Active”.

Question: What about the Activity (CAL-27 [19]) of the same compound?
Answer: Its Activity is “Active”.

Question: What about the Activity (CAL-27 [20]) of the same compound?
Answer: Its Activity is “Active”.

Question: What about the Activity (CAL-27 [21]) of the same compound?
Answer: The Activity was “Active”.

Question: And the IC50 (CAL-27 [22])?
Answer: Its IC50 is 1470 nM.

Question: And the IC50 (cells [23])?
Answer: Its IC50 is 2230 nM.

Question: And the IC50 (cells [24])?
Answer: Its IC50 is 16500 nM.

Question: And the IC50 (A2780 [25])?
Answer: The IC50 was 3500 nM.

Question: What about the IC50 (A2780cisR) of the same compound?
Answer: Its IC50 is 16000 nM.

Question: And the IC50 (HL-60)?
Answer: The IC50 was 969 nM.
